Data set [1] is described as follows: Repeated-dose GLP toxicology studies with unmodified C-peptide, continuous s.c. infusion. The data set is classed as in vivo, Sprague Dawley rat. Conditions: for No Observed Effect Level: continuous s.c. infusion; for level at time molar: Sprague Dawley, rat, plasma, sc, read-out: C-peptide Css. The method, then:
(§1) In the five GLP toxicology studies conducted with non-PEGylated C-peptide for up to 4 weeks in rats and 13 weeks in Cynomolgus monkeys, the C-peptide was continuously infused s.c. via implanted osmotic pumps. The plasma concentration of C-peptide was measured periodically throughout the studies and a steady-state concentration (Css) over the duration of exposure has been determined for each study as shown in Table E6.

The nature of data set [2]: PK of unmodified C-peptide in beagle dogs, single S.C. dose (first PK study).
Description: A pharmacokinetic (PK) study was conducted to determine the C-peptide PK profile with unmodified C-peptide in beagle dogs.
Plasma samples were obtained after centrifugation of the blood (3,000 rpm for 10 minutes) and stored at −80° C. until analysis. […] Results were expressed as C-peptide concentrations. For the PK analysis, the below quantitation level (BQL) was treated as zero and nominal time points were used for all calculations. PK parameters were determined by standard model independent methods based on the individual plasma concentration-time data for each animal using model 200 in WinNonlin Professional 5.2.1 (Pharsight Corp., Mountain View, Calif.).
A short description of data set [3]: Repeated-dose GLP toxicology studies with unmodified C-peptide, continuous s.c. infusion. The data set is classed as in vivo, Cynomolgus monkey. Conditions: for No Observed Effect Level: continuous s.c. infusion; for level at time molar: cynomolgus monkey, plasma, sc, read-out: C-peptide Css. The method, then: as §1
The mark [4] stands for this setting: both, beagle, dog, plasma, sc, 0.5 mg/kg.

Where two headings read alike, the source gives them in different places.

As for `CC(C)C[C@H](NC(=O)[C@H](C)NC(=O)[C@H](CC(C)C)NC(=O)[C@@H]1CCCN1C(=O)[C@H](CCC(N)=O)NC(=O)[C@H](CC(C)C)NC(=O)[C@H](CO)NC(=O)CNC(=O)[C@H](C)NC(=O)CNC(=O)[C@@H]1CCCN1C(=O)CNC(=O)CNC(=O)CNC(=O)[C@H](CC(C)C)NC(=O)[C@H](CCC(=O)O)NC(=O)[C@@H](NC(=O)[C@H](CCC(N)=O)NC(=O)CNC(=O)[C@@H](NC(=O)[C@H](CCC(N)=O)NC(=O)[C@H](CC(C)C)NC(=O)[C@H](CC(=O)O)NC(=O)[C@H](CCC(=O)O)NC(=O)[C@H](C)NC(=O)[C@@H](N)CCC(=O)O)C(C)C)C(C)C)C(=O)N[C@@H](CCC(=O)O)C(=O)NCC(=O)N[C@@H](CO)C(=O)N[C@@H](CC(C)C)C(=O)N[C@@H](CCC(N)=O)C(=O)O` [unmodified C-peptide], the “No Observed Effect Level” value in data set [1] (4 weeks) is recorded as 0.5 mg/kg/day; in data set [1] (14 days) it was 2 mg/kg/day; in data set [3] (13 weeks), 3.6 mg/kg/day; in data set [3] (14 days) it was 2 mg/kg/day. The level at time molar in data set [1] (0.5 mg/kg/day, 4 weeks at NOEL 0.5 mg/kg/day, mean of days 2, 14, 28) amounted to 0.0042 µM; in data set [1] (2 mg/kg/day, 14 days at NOEL 2 mg/kg/day, mean of days 2, 10, 14) it was 0.027 µM; in data set [3] (13 weeks at NOEL 3.6 mg/kg/day, mean of days 2, 28, 37/38, 56, 91), 0.04 µM; in data set [3] (14 days at NOEL 2 mg/kg/day, mean of days 2, 10, 14), 0.084 µM. For the same molecule, the AUC(0-t) in data set [2] (setting [4]) is 1.86 µg·h/mL. In data set [2] (setting [4]), this molecule came in with a Cmax of 0.757 µg/mL. Besides, the “circulating levels of C-peptide below quantitation level (BQL)” value in data set [2] (single S.C. dose 0.5 mg/kg) was “BQL within half a day”. In data set [2] (single S.C. dose 0.5 mg/kg), the “tolerability (clinical abnormalities)” value is on record as “well tolerated”.

The values are drawn from US8691755B2, “Pegylated C-peptide” (Cebix AB, priority 2010, dated 2014).
